Assay results from patent US12473310B2, “Vitamin D3 phosphate and pharmaceutically acceptable salts thereof, pharmaceutical compositions comprising the compound and methods for preparing the compound” (King's College London, priority 2020, dated 2025).
Structures can show the parent of a compound that is named as a salt.

What was measured:
[1] = skin permeation and deposition, automated Franz diffusion cell (Example 5); format: in vitro ADME; settings: PG formulation
Method: For the final formulation, 61.5 mg of cholecalciferol phosphate acid in 4.1 mL hexane was added into 1.435 mL DURO-TAK 87-2051 (51.5 w/v %) with 16.4 μL α-tocopherol and 20.5 μL diethylene glycol monoethyl ether. Likewise, 120 mg of cholecalciferol phosphate disodium salt in 35.2 mL MeOH:water (10:1) was added to 1.336 mL of DURO-TAK 87-2051 (51.5 w/v %) in 56 mL ethyl acetate with 32 mg of α-tocopherol and 48 μL diethylene glycol monoethyl ether. Each formulation was spread evenly on the 10×10 cm patch tray and left overnight to dry completely. Following the complete drying of the solvents, the adhesive layer was covered by the M3 Release layer (SCOTCHPAK 9755, UK), compressed, and then cut using a 34 mm circular manual die cutter (SCP Super Cutting Press, UK).
Subsequently, 1 mL aliquots were applied to the skin.
The automated Franz diffusion cell was used to investigate the permeation of cholecalciferol, cholecalciferol phosphate salt and cholecalciferol phosphate acid through porcine skin. Fresh white adult porcine ears were obtained from a local butcher (Ginger Pig, UK). Any damaged ears were discarded. The ears were removed from the carcass after hair removal. […] The collected receiver fluid was analysed by HPLC methods described previously.
At the end of the transport studies, the Franz cells were dismantled, and the donor solution was collected into bottles containing 10 mL of extraction fluid; MeOH for cholecalciferol, cholecalciferol phosphate acid and MeOH:water (90:10) for cholecalciferol phosphate salt, by wiping the surface of the skin and the inside of the donor compartment with two wet and then two dry cotton buds. […] Each collection was analysed by the HPLC method described above. Thus, the amount of each test agent on the surface of the skin, deposited in the skin, and passed into the receiver fluid was determined so that % mass recovery per cm^2 per skin could be calculated and drug deposition profiles could be obtained.

in vitro = in vitro ADME, porcine; settings: for total penetration into / deposited in the skin: vehicle 100% PG, 0.25 mm porcine skin
Method: Donor solutions (2.5 mg/mL, 100,000 IU), which is an infinite dose, containing cholecalciferol and cholecalciferol phosphate disodium prepared according to Example 1, were compared to PG:EtOH (50:50) for cholecalciferol and 100% water for cholecalciferol phosphate.
The Franz diffusion cell was used to investigate the permeation of cholecalciferol and cholecalciferol phosphate through porcine skin. Fresh white adult porcine ears were obtained and any damaged ears were discarded. The ears were removed from the carcass after hair removal. The ears were washed with deionised water, the residual water on the skin surface was immediately removed by blotting with a tissue, visible hairs were trimmed carefully, and the ears were stored at −20° C. for no longer than 30 days until required. On the day of the experiment the skin was defrosted, and the subcutaneous fat was removed using a scalpel. The tissue was cut into the appropriate size sections (0.25 mm thick, 2.19±0.21 cm^2) to be mounted with the stratum corneum (SC) facing the donor compartment between donor and receiver compartments of Franz diffusion cells. The pieces of skins were sealed between the two compartments using parafilm, and 12 mm magnetic follows was placed into the receiver compartment. The receiver compartment in the Franz diffusion cell was filled with 100% PG for cholecalciferol; and a 1:1 mixture of PG: (MeOH:PBS ([…]), 90:10) for cholecalciferol phosphate (9.23±0.23 mL). The cell sealing was confirmed by cell inversion and monitoring solvent back diffusion. Sink conditions were maintained throughout the transport assays. The temperature of the Franz diffusion was maintained at 37° C. in a water bath, to set up the skin temperature 32° C. (Maddock, W. G. and Coller, F. A., ([…]) The role of the extremities in the dissipation of heat, American Journal of Physiology-Legacy Content, 106(3), 589-596). After 1 h equilibration at 37° C. in the water bath, 1 mL of receiver fluid was taken at time points 0 in 30 min and a fresh 100% PG was replaced to keep the volume content, and 1 mL of each formulation was applied in the donor compartment. After 24 h, the receiver fluid was collected and analysed by HPLC methods.
At the end of the transport studies, the Franz cells were dismantled, and the donor solution was collected into bottles containing 10 mL of extraction fluid; PG:EtOH (50:50) for cholecalciferol and MeOH:water (90:10) for cholecalciferol phosphate, by wiping the surface of the skin and inside of the donor compartment with two wet and then two dry cotton buds. The SC was removed from the epidermis by tape stripping. A 300 mg weight was used onto the skin to press the adhesive tape to apply defined pressure for 10 sec. A piece of tape that can cover the diffusion area was used to remove the SC. The first two pieces of tape were added into the donor solution, as the first 2 strips were considered as part of the applied formulation and its removal was part of the formulation wash off (Primo, F. L. et al., (2008) In vitro studies of cutaneous retention of magnetic nanoemulsion loaded with zinc phthalocyanine for synergic use in skin cancer treatment, Journal of Magnetism and Magnetic Materials, 320(14), e211-e214.; Sheth, N. V. et al., (1987) Measurement of the stratum corneum drug reservoir to predict the therapeutic efficacy of topical iododeoxyuridine for herpes simplex virus infection. Journal of investigative dermatology, 89(6), 598-602). The next 20 pieces of tapes were added into bottles containing 10 mL of extraction fluid. The epidermis was removed from the dermis and cut into small pieces by scalpels, placed in bottles containing 2 mL of extraction fluid. Furthermore, the dermis was cut into small pieces and was placed in bottles containing 2 mL of extraction fluid. […]

Compound: C=C1CC[C@H](OP(=O)(O)O)C/C1=C/C=C1\CCC[C@@]2(C)C1CC[C@@H]2[C@H](C)CCCC(C)C (stereo partly shown) [Cholecalciferol phosphate disodium salt, cholecalciferol phosphate disodium salt]
- fold higher transdermal permeation through the skin compared to cholecalciferol ([1]; phosphate disodium salt): ~35.02 fold
- deposition in the dermis compared with cholecalciferol (in vitro): not statistically different
- deposited in the skin (in vitro; pig, 24 h, 2.5 mg/mL): 29.59±9.44 μg/cm^2
- deposition in the SC (in vitro; pig, 24 h, 2.5 mg/mL): 50.15±8.20 μg/cm^2
- deposition in the epidermis (in vitro; pig, 24 h, 2.5 mg/mL): 113.96±18.79 μg/cm^2
- skin deposition, times more than the cholecalciferol (in vitro; pig, 24 h, 2.5 mg/mL): 1.97 times
- total penetration into / deposited in the skin (in vitro; 2.5 mg/mL, 24 h): 189.99±29.10 μg/cm^2
- transdermal penetration, passed all the way through the skin (in vitro; vehicle PG, 24 h): 50.50±6.40 μg/cm^2

Compound: C=C1CC[C@H](O)C/C1=C/C=C1\CCC[C@]2(C)[C@@H]([C@H](C)CCCC(C)C)CC[C@@H]12 [Cholecalciferol, cholecalciferol, reference compound]
- transdermal permeation through the skin ([1]; 1.0 mm porcine skin, 24 h): 1,245.2 IU
- total recovery from the skin permeation experiments (in vitro; pig, 24 h, 2.5 mg/mL): 80%
- recovery at 24 h, 2.5 mg/mL (in vitro; pig, total recovery from the skin permeation experiments): 61%
- total penetration into / deposited in the skin (in vitro; 2.5 mg/mL, 24 h): 96.51±17.88 μg/cm^2
- total penetration into the skin (in vitro; vehicle PG:EtOH (50:50), 24 h): 80.63±13.23 μg/cm^2
- deposition in the SC (in vitro; vehicle PG, 24 h): 1.79±1.80 μg/cm^2
- deposition in the epidermis (in vitro; vehicle PG, 24 h): 40.13±24.26 μg/cm^2
- transdermal penetration, passed all the way through the skin (in vitro; vehicle PG, 24 h): did not pass through the tissue
